Data as given in patent EP4813999A1, “NOVEL PEPTIDE DERIVATIVE AND PHARMACEUTICAL COMPOSITION FOR PREVENTING OR TREATING MACULAR DEGENERATION COMPRISING SAME” (Supadelixir Inc., priority 2023, dated 2026).

What was measured:
HUVECs = assay: Cytotoxicity of test substance (CCK-8 cell viability); format: cell-based, human; conditions: 24, 48 and 72 hours, up to a concentration of 1,000 nM (1 µM), relative to untreated group at 24 hours
Description: The anti-angiogenic activity of the test substance (SE101B2L) was evaluated using HUVECs. HUVECs were cultured in CEFOgro-HUVEC basal medium (CEFO Co., Ltd.) supplemented with growth supplements containing vascular endothelial cell growth-related factors and serum (HUVEC supplements, CEFO Co., Ltd.), which was used as vascular endothelial cell growth medium (hereinafter denoted as "growth medium").
HUVECs were seeded into a 96-well plate at 5 × 10^3 cells per well together with 0.1 ml of growth medium. After incubation for one day, the cells were treated with the test substance (SE101B2L) such that the final concentration increased tenfold from 0.001 nM (denoted as log -3) to 10,000 nM (denoted as log 4). Thereafter, test groups were incubated for 24, 48, and 72 hours, and Cell Counting Kit-8 (CCK-8) was added at each predetermined time point, followed by incubation for an additional 2 hours, and absorbance was measured at 450 nm. Cell viability was calculated relative to the absorbance value of the untreated group at 24 hours.

ARPE19 cells [1] = assay: Cell viability under hydrogen peroxide-induced oxidative stress (CCK-8); format: cell-based, Human; conditions: 400 µM hydrogen peroxide, test substance 0.01, 0.1, 1, 2 µM, 24 hours
Description: (§1) Human retinal pigment epithelial cells (ARPE19) were cultured in a humidified incubator with 5% CO2 at 37°C. DMEM/F12 (Gibco) containing 10% fetal bovine serum and penicillin (100 U/ml)/streptomycin ([…]) was used as medium. The cells were cultured with the medium replaced with fresh medium every other day and were passaged using 0.25% trypsin containing 0.02% ethylenediaminetetraacetic acid (EDTA).
After oxidative stress was induced in human retinal pigment epithelial cells using hydrogen peroxide (H2O2), the test substance (SE101B2L) was added at varying concentrations to confirm changes in cell viability. CCK-8 was used to confirm cell viability.
ARPE19 cells were seeded into a 96-well plate at 1 × 10^4 cells/well and cultured in an incubator for 24 hours. The test substance was added to each treatment group at concentrations of 0, 0.01, 0.1, 1, and 2 µM, together with 400 µM hydrogen peroxide, followed by incubation for 24 hours. […] After incubation, a 96-well plate containing 90 µL of cell suspension per well was inoculated with 10 µL of ready-to-use CCK-8 solution. The plate was incubated for 2 hours, and the OD450 of the supernatant was measured to confirm cell viability through quantification.

ARPE19 cells [2] = assay: Hydrogen peroxide-induced apoptosis (phosphatidylserine / CytoCalcein Violet 450 staining); format: cell-based, Human; conditions: 200 µM hydrogen peroxide, test substance 0.01, 0.1, 1 µM, 24 hours
Description: as §1
After apoptosis was induced in ARPE19 cells using hydrogen peroxide (H2O2), the test substance (SE101B2L) was added at varying concentrations to evaluate inhibitory effects against apoptosis. Inhibitory effects against apoptosis were measured using phosphatidylserine (PS), which is exposed on the surface of apoptotic cells.
ARPE19 cells were seeded into a 24-well microplate containing coverslips at 1 × 10^6 cells/well and cultured in an incubator with 5% CO2 at 37°C for 24 hours. When approximately 80% confluency was reached, the test substance was added to each treatment group at concentrations of 0, 0.01, 0.1, and 1 µM, together with 200 µM hydrogen peroxide, followed by incubation for 24 hours. […] Emission signals detected from each cell were measured using a digital fluorescence microscope (CELENA S digital imaging system, Logos Biosystems, Korea) to quantify apoptotic cells and live cells.

[3] = system: CNV-induced male chinchilla rabbits; assay: Macular degeneration animal model: laser-induced CNV, retinal fluorescein fundus imaging; format: in vivo; conditions: instillation 50 µL twice daily, Day 7 and Day 14, versus induced control group (G1)
Excerpt: As a macular degeneration animal model, CNV-induced male chinchilla rabbits were used. The efficacy test using the CNV animal model was commissioned to HLB Biostep Co., Ltd. (formerly Notus Co., Ltd.). In order to induce CNV formation, a mydriatic agent (Mydriacyl 1% eye drops) was instilled into the right eye of each chinchilla rabbit, followed by anesthesia. Thereafter, the right eye was irradiated using a laser (LIGHTLas 532, LIGHTMED, USA) under conditions of a wavelength of 532 nm and a power of 150 mW for 0.1 seconds, thereby creating six wounds in the 6 o'clock direction centered on the optic nerve.
An induced control group (G1) was repeatedly administered 0.9% aqueous sodium chloride solution (vehicle) by instillation twice daily. […]
After initiation of administration to each group, a mydriatic agent (Mydriacyl 1% eye drops) was instilled into the right eye of each animal on Day 0, Day 7, and Day 14, followed by anesthesia. […] Confirmation of retinal CNV and evaluation of pharmacological efficacy were performed using retinal fluorescein fundus images, and image analysis was performed using the ImageJ software (NIH, Bethesda, MD) to analyze fluorescence intensity at irradiated sites.
Assuming normality for the results of the present test, significance between test groups was analyzed using parametric one-way analysis of variance (one-way ANOVA). […]

Q: How did the “cell viability (cytotoxicity)” value (HUVECs) turn out when “decylbenzoyl-Cys-Phe-Lys-amide [SE101B2L]” was run?
A: no significant difference in cell viability

Q: And the cell viability (ARPE19 cells [1])?
A: increases cell viability in a concentration-dependent manner

Q: What about the “apoptotic cells (green)” value (ARPE19 cells [2]) of the same substance?
A: apoptotic cells (green) decrease

Q: And the “live cells (blue)” value (ARPE19 cells [2])?
A: live cells (blue) increase in a concentration-dependent manner

Q: And the retinal fluorescence intensity ([3]; G3: 3750 ppm)?
A: statistically significantly lower than those in the induced control group (G1) (p < 0.001)

Q: What about the retinal fluorescence intensity ([3]; G4: 187.5 ppm) of the same substance?
A: statistically significantly lower than those in the induced control group (G1) (p < 0.001)
